The results in this text go back to patent US10328094B2, “Compound from the avermectin family for treating and/or preventing folliculitis” (GALDERMA SA, priority 2015, dated 2019).

“Also recorded” adds a separate entry of the source.

The subject of experiment [1] is primary human keratinocytes. Description: CXCL14 and CCL5 protein concentration by ELISA assay in primary human keratinocytes. It is filed as cell-based. As to the method: Another objective of the present study was to identify the effect of ivermectin on the CXCL14 and CCL5 protein level of
(§1) To do this, primary human keratinocytes were cultured with various concentrations of EGFR inhibitor (in this case erlotinib) each with +/− TNF-α/IL-1β, various concentrations of ivermectin alone each with +/− TNF-α/IL-1β various concentrations of erlotinib and of ivermectin each with +/− TNF-α/IL-1β. The addition of the pro-inflammatory cytokines TNFα and IL1β makes it possible to mimic the skin inflammation.
(§2) The various concentrations used were the following: • Erlotinib: 0-0.1 μM-1 μM-10 μM (each with +/− TNF-α/IL-1β) • Ivermectin: 0-0.1 μM-1 μM-10 μM (each with +/− TNF-α/IL-1β) • Co-stimulation: • Erlotinib (0.1 μM)+Ivermectin (1 μM) (+/− TNF-α/IL-1β) • Erlotinib (0.1 μM)+Ivermectin (5 μM) (+/− TNF-α/IL-1β) • Erlotinib (1 μM)+Ivermectin (1 μM)+/− TNF-α/IL-1β) • Erlotinib (1 μM)+Ivermectin (5 μM) (+/− TNF-α/IL-1β)
(§3) The expression of the CXCL14, CCL5 (chemokines), RNase 7, HBD3 and LL37 (antimicrobial peptides) genes was analyzed by quantitative PCR. The protein concentration of the chemokines CXCL14 and CCL5 was quantified using an ELISA assay.
Background: In an ELISA, binding on a coated surface is turned into a signal by an enzyme label.

For experiment [2], the system named is primary human keratinocytes. The experiment in a line: Gene expression by quantitative PCR in primary human keratinocytes treated with erlotinib and/or ivermectin +/- TNF-α/IL-1β. The class given is cell-based. How it is done:
A study was carried out on primary human keratinocytes in vitro, in order to determine the effect of ivermectin on the regulation of genes of which the expression has been identified as being modulated by EGFR inhibitors. Said genes identified are the pro-inflammatory chemokines CCL2, CCL5, CCL27 and CXCL14 and the cytokines of the IL-1β family, but also the genes of antimicrobial peptides RNase7, HBD3 and LL37.
as §1, §2, §3

Setting [3] is: ivermectin in combination with erlotinib, +/- TNFα/IL1β.
[4] abbreviates: erlotinib and TNFα/IL1β, without ivermectin.
[5] abbreviates: erlotinib without ivermectin, listed as erlitonib.

On to `CC[C@H](C)[C@H]1O[C@]2(CC[C@@H]1C)C[C@@H]1C[C@@H](C/C=C(\C)[C@@H](O[C@H]3C[C@H](OC)[C@@H](O[C@H]4C[C@H](OC)[C@@H](O)[C@H](C)O4)[C@H](C)O3)[C@@H](C)/C=C/C=C3\CO[C@@H]4[C@H](O)C(C)=C[C@@H](C(=O)O1)[C@]34O)O2` [ivermectin], for which the “CXCL14 protein level (ELISA)” value in experiment [1] (ivermectin in combination with erlotinib and TNFα/IL1β) was “decrease the protein level”. Also, in experiment [2] (setting [3]), the “expression of CCL5 (gene, quantitative PCR)” value (“expression of CCL5” below) is “significant modification of the induction; also recorded: reduce the overexpression”; the “expression of CXCL14 (gene, quantitative PCR)” value (“expression of CXCL14” below) is on record as “significant modification of the induction; also recorded: reduce the overexpression”; the “expression of HBD3 (gene, quantitative PCR)” value is “induce the expression”. The “expression of RNase 7 (gene, quantitative PCR)” value in experiment [2] (ivermectin in combination with erlotinib, various concentrations) was “re-establish the expression of RNase 7 greatly decreased in the presence of erlotinib but also to induce a strong expression thereof”.
Consider `C#Cc1cccc(Nc2ncnc3cc(OCCOC)c(OCCOC)cc23)c1` [erlotinib], for which, in experiment [1] (setting [4]), the “CCL5 protein concentration (ELISA)” value is on record as “increase” and the “CXCL14 protein concentration (ELISA)” value is “increase”. In experiment [2] (erlotinib without ivermectin), the “expression of CCL5” value is recorded as “induction”; the “expression of CXCL14” value is listed as “induction”; the “expression of HBD3 (gene, quantitative PCR)” value is reported as “decreased”; the “expression of RNase 7 (gene, quantitative PCR)” value is “greatly decreased”. In experiment [2] (setting [5]), the “expression of CCL5” value is “overexpression” and the “expression of CXCL14” value was “overexpression”.
